Reference: ChEMBL document CHEMBL1201862, “PubChem BioAssay data set” (2004)
The source made the active and inactive calls.

Assays:
[1] = target: T1, Rac GTPase-activating protein 1 (Homo sapiens, UniProt Q9H0H5); assay: MgcRacGAP GTPase-activating activity inhibitors, confirmation, biochemical, ADP Hunter fluorescence, primary and confirmatory (AID 624330); type: functional
T1 sequence (Q9H0H5 whole entry): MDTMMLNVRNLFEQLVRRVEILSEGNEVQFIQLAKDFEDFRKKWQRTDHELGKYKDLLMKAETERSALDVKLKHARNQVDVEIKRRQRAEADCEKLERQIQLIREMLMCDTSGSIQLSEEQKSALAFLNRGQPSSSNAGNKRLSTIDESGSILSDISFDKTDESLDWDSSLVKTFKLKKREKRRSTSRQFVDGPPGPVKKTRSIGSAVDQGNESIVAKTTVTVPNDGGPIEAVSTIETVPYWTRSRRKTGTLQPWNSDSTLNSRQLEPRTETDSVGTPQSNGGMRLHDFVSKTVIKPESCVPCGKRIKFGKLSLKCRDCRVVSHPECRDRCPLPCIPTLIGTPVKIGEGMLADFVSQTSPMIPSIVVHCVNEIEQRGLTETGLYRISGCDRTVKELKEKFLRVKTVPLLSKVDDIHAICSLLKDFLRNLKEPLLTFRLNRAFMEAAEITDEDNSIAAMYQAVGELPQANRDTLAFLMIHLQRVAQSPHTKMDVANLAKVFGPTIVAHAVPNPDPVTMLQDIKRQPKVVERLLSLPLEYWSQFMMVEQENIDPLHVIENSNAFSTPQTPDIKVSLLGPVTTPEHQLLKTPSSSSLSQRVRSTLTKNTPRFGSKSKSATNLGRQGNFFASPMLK

Interleukin-8 [2] = target: T2, Interleukin-8 (Homo sapiens, UniProt P10145); assay: Dose Response confirmation of uHTS small molecule hits for cystic fibrosis induced NFkb Inhibitors in a PAF-induced IL8 counterscreen.; type: functional; details: read-out: IC50_Mean
T2 sequence (P10145 whole entry): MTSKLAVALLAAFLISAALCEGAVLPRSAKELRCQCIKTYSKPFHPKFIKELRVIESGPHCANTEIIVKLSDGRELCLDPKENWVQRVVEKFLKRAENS

Interleukin-8 [3] = target: T2, Interleukin-8; assay: Dose Response confirmation of uHTS small molecule hits for cystic fibrosis induced NFkb Inhibitors in a TNFa-induced IL8 counterscreen.; type: functional; details: read-out: IC50_Mean
Steroidogenic factor 1 = Steroidogenic factor 1 (Homo sapiens, UniProt Q13285); assay: Counterscreen for inverse agonists of the liver receptor homolog-1 (LRH-1; NR5A2): Luminescence-based cell-based high throughput dose response assay to identify inverse agonists of the Steroidogenic Factor 1 Nuclear Receptor (SF1; NR5A1).; type: functional
Sequence of Steroidogenic factor 1 (Q13285 whole entry): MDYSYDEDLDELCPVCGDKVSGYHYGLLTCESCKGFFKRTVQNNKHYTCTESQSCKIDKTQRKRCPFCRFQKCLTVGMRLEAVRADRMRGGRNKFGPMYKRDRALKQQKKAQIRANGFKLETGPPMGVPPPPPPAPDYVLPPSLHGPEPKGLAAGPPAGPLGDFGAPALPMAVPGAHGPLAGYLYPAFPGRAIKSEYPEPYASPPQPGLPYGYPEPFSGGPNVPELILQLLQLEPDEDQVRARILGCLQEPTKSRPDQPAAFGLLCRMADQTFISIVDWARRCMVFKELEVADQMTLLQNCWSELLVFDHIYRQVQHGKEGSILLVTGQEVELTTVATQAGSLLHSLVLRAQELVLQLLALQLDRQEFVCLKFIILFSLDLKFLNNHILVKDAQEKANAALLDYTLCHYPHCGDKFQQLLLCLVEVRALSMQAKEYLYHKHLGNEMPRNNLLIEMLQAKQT

[4] = StAR promoter reporter inhibition counter-screen, dose response, counter-screen for LRH-1 inverse agonist project, cell-based, luminescence, luciferase reporter (AID 651969); type: functional
[5] = target: Nuclear receptor subfamily 5 group A member 2 (Homo sapiens, UniProt O00482); type: functional, cell-based;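 also: HEK293T cells transfected with LRH-1 and a StAR promoter luciferase reporter; potency for inhibitors that lower LRH-1 driven reporter light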
Sequence of Nuclear receptor subfamily 5 group A member 2 (O00482 whole entry): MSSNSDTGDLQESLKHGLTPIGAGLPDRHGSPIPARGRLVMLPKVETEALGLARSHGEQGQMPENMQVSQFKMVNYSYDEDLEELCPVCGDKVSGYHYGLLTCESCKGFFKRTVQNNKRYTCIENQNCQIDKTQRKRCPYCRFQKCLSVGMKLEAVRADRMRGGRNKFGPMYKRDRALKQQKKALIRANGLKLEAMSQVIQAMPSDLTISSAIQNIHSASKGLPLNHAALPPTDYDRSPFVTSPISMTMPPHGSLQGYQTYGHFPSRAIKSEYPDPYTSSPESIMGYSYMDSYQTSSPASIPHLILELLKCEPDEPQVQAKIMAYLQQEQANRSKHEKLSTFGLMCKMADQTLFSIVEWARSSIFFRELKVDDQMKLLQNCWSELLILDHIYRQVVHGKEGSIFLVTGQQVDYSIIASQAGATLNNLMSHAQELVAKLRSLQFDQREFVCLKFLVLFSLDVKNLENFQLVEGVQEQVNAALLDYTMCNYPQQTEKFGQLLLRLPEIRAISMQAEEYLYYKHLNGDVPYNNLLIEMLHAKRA

[6] = target: T3, Aryl hydrocarbon receptor (Homo sapiens, UniProt P35869); details: Potency;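 also: confirmatory quantitative high-throughput screen measuring activation of the AhR signaling pathway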
T3 sequence (P35869 whole entry): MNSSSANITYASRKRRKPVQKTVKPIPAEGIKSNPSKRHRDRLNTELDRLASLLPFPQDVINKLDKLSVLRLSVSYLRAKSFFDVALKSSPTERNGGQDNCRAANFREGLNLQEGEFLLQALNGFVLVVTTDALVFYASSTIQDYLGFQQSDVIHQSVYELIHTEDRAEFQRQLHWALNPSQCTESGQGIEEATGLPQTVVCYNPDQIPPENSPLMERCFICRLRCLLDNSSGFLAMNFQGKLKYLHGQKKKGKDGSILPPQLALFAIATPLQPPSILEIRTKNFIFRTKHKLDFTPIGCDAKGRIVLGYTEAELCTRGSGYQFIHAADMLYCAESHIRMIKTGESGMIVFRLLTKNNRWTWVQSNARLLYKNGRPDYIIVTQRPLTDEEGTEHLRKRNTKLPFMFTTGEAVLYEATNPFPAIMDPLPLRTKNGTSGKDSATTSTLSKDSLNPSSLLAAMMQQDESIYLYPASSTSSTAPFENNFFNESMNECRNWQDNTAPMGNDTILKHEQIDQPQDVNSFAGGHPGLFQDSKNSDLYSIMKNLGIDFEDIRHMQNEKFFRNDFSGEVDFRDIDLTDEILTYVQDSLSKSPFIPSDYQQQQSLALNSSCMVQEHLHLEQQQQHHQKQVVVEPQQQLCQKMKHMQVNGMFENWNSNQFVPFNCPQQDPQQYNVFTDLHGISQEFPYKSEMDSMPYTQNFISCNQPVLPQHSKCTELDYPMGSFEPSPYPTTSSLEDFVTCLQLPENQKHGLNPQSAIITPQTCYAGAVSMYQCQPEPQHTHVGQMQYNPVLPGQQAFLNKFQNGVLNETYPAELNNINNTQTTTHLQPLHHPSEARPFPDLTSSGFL

[7] = NIH:OVCAR-3 ovarian cancer cell cytotoxicity, dose response, PAX8 inhibitor project, plate reader, dry powder samples (AID 743044); type: functional, cell-based
Paired box protein Pax-8 = Paired box protein Pax-8 (Homo sapiens, UniProt Q06710); assay: inhibitors of PAX8-driven TPO luciferase reporter, dose response, RMG-I cells, cherry-pick (AID 687027); type: functional, cell-based;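 also: luciferase reporter driven by Pax8 target thyroperoxidase promoter measured by SteadyGlo luminescence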
Sequence of Paired box protein Pax-8 (Q06710 whole entry): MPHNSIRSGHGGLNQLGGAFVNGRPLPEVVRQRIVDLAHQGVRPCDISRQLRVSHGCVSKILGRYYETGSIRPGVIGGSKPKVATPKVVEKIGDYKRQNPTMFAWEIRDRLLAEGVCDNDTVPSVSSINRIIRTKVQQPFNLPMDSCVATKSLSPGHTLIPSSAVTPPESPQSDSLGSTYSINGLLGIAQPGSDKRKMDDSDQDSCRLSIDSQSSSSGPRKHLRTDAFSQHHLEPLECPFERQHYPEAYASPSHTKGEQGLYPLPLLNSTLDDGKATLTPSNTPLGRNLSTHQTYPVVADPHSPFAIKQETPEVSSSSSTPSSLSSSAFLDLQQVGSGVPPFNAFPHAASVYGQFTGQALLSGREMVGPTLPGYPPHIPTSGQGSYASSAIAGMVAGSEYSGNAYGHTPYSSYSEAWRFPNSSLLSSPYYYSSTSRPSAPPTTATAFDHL

[8] = inhibitors of CMV-promoter luciferase reporter, dose response, counter-screen for Pax8 inhibitor project, cell-based, HEK293, luminescence, dry powder (AID 743020); type: functional
Mu-type opioid receptor = Mu-type opioid receptor (Homo sapiens, UniProt P35372); type: functional, cell-based;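 also: U2OS cells with beta-arrestin recruitment to OPRM1 by beta-gal complementation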
Sequence of Mu-type opioid receptor (P35372 whole entry): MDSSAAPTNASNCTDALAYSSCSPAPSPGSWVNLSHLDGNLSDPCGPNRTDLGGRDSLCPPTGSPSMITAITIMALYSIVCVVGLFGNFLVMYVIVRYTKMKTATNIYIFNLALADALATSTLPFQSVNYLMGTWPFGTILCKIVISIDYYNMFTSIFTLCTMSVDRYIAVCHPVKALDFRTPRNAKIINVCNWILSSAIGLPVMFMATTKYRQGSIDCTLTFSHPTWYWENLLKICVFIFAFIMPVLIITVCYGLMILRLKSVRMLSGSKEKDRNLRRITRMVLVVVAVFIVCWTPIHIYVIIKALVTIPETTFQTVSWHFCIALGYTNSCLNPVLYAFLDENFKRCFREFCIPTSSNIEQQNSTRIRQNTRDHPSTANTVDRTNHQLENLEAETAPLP

[9] = target: 5-hydroxytryptamine receptor 2A (Mus musculus, UniProt P35363); type: functional, cell-based;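 also: CHO-K1 cells with tagged receptor and beta-arrestin; agonist potency measured as compound-induced activation of the receptor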
Sequence of 5-hydroxytryptamine receptor 2A (P35363 whole entry): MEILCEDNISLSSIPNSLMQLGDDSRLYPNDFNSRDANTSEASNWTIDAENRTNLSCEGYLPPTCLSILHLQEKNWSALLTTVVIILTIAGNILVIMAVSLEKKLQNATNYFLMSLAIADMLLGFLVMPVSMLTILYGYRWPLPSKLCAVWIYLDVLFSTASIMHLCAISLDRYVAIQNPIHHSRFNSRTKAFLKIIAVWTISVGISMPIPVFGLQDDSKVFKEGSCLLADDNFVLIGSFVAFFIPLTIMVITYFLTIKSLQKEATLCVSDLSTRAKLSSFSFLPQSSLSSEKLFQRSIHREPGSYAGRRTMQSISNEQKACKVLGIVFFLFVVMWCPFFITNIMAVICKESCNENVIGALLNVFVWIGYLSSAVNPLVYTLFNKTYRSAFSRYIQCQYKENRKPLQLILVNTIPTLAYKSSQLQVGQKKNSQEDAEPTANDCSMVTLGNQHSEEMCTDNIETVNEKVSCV

[10] = inhibitors of TNFa-stimulated NF-kB luciferase reporter, dose response, selectivity assay for EBV LMP1 NF-kB inhibitor project, HEK293 LMP1 reporter cells, dry powder, set 2 (AID 624369); type: functional

For COc1ccc(-c2c[nH]nc2-c2ccc(O)cc2O)cc1, the IC50 [1] was 43.9 µM (active), the IC50 (Interleukin-8 [2]) was 6.94 µM (active) and the IC50 (Interleukin-8 [3]) was 2.62 µM (active).
For CC(=O)c1ccc(OC(C)C(=O)OCC(=O)NCCc2ccccc2)cc1 (stereo not drawn), the IC50 (Steroidogenic factor 1) was 8.19 µM (active), the IC50 [4] was 35.9 µM (inactive) and the IC50 [5] was 9.39 µM (active).
With Cc1ccccc1C(=O)Nc1cccc(OC(C)C)c1 [MEPRONIL] the AC50 [6] was 28.2 µM (inconclusive).
In the case of CS(=O)(=O)Nc1ccc2c(c1)[C@@H]1C[C@H](CC(=O)NCc3ccc(Oc4ccccc4)cc3)O[C@@H](CO)[C@@H]1O2, the AC50 [7] is reported as 20.7 µM (active), the AC50 (Paired box protein Pax-8) is reported as 6.4 µM (active) and the AC50 [8] is reported as 39.7 µM (active).
For O=C(CSc1ccc2ccccc2c1)NCCc1ccc(O)c(O)c1, the EC50 (Mu-type opioid receptor) was 92.5 µM (inactive) and the EC50 [9] was 2.67 µM (active).
CCCNC(=O)c1cc2c(c(-c3cccc(-c4cccc(F)c4)c3)n1)[C@H](CCO)N([S@@+]([O-])C(C)(C)C)C2 gave an AbsAC35 [10] of 250.06 µM.
